# According to patent publication US20250304893A1, “PERFUSABLE 3D TUBULE-ON-CHIP MODEL DERIVED FROM KIDNEY ORGANOIDS WITH IMPROVED DRUG UPTAKE” (President and Fellows of Harvard College, priority 2022, published 2025):
# Legend:
# OPTECs = assay: 2D OPTEC culture with media supplements to minimize epithelial to mesenchymal transition; assay type: cell-based, human
# Description: Organoid-derived PTECs (OPTECs) were cultured in 24-well plates pretreated with 1:20 laminin-511 (Biolamina LN511) in DPBS with calcium and magnesium. For passages 0 and 1, the OPTECs were cultured in REGM media supplemented with 1% FBS. Upon reaching passage 2, the OPTECs were cultured using LPTEC media supplemented with 1% FBS and 10 μM SB431542 (ab120163). Each passage was performed when the cells reached ˜90% confluency by first washing the cells with DPBS without calcium and magnesium, treating with 0.05% trypsin/EDTA for 3-5 min (or until cells lifted off the plate), followed by quenching with culture medium, centrifuging at 240 ref for 4 min, resuspending in culture media, and seeding each laminin pre-treated well at a density of 70,000-100,000 cells/cm^2.
# Next, the effects of two different media were tested: (1) modified DMEM F-12 medium described by previous work^14 (LPTEC) and (2) commercially available renal epithelial growth medium (REGM). […] To further promote cell attachment, growth, and proliferation, 1% FBS was added to the media. To minimize epithelial to mesenchymal transition (EMT), the effects of transforming growth factor (TGF-β), bone morphogenic protein 7 (BMP7) and TGF-β/activin/NODAL pathway (SB431542) inhibitors were explored (FIG. 6k-l)^26. […]
# OPTEC tubules [1] = conditions: 48 h
# Description: Before beginning these experiments, three important steps were carried out: (1) all reservoirs were supplied with fresh media, (2) all outlet tubing was cut to the same length, and (3) all chips were subjected to one-way rather than recirculating back to the media reservoir. After each chip within the MCDs was subjected to one-way flow (2 μL/min) for 4 h, a baseline sample of the perfusate was collected from the luminal outlet tubing for 3 h into a 1.6 mL Eppendorf tube. Next, cisplatin (50 μM) or aristolochic acid (25 μM) was delivered basolaterally on chip by manually pipetting each drug solution to the appropriate basal media reservoir. Next, all tubing was reconnected to the peristaltic pump and allowed to flow at a flow rate of 2 μL/min. After 48 h, another sample of the perfusate was collected from the luminal outlet tubing for 3 h into a 1.6 mL Eppendorf tube. All collected luminal media samples were spun down at 5000 rcf for 5 min to remove cellular debris. Each supernatant was transferred to a fresh tube and stored at −20° C. to run the LDH assay. For samples pre-treated with inhibitors, cimetidine (1 mM) or probenecid (2 mM) was first added to the basal reservoir, delivered basolaterally, and allowed to diffuse through the gelatin-fibrin matrix during recirculating flow for 1 h.
# LDH assays were performed according to the manufacturer's instructions (Promega, CytoTox Non-Radioactive Cytotoxicity Assay, G1780). The frozen media samples were thawed at room temperature and used after this first thaw cycle. Next, 50 μL of each media was transferred to a 96-well plate and incubated at 37° C. for 30 min with 50 μL of CytoTox 96 reagent. 50 μL of stop solution was then added, all bubbles were removed using a syringe, and their absorbance was recorded at 490 nm using a plate reader.
# (§1) Normalized LDH release was calculated using the following equation: […]
# (§2) LDH48 was the recorded absorbance of the 48-h perfusate sample and LDHbaseline was the recorded absorbance of baseline perfusate sample before drug exposure. Normalized LDH release was calculated for each of the tubules individually and plotted into sample groups comparing OPTEC-on-chip and PTEC-TERT1-on-chip models subjected to each drug ±inhibitor.
# To assess nephrotoxicity, luminal perfusate was collected and LDH analyses were performed. LDH is a cytosolic enzyme found in nearly all cell types, including PTECs, that is released upon cellular damage^29. […] Due to differences in their baseline LDH release among different tubules across the two cell types, a normalized LDH release (LDH release at 48 h relative to baseline release) was determined for each sample, i.e., OPTEC and PTEC-TERT1 tubules without drug, with drug, and with drug and corresponding inhibitors for OCT2 and OAT1/3 transporters, respectively.
# PTEC-TERT1 tubules = assay: Nephrotoxicity testing: normalized LDH release in luminal perfusate of PTEC-TERT1-on-chip tubules (control chips); assay type: cell-based, human
# Description: Before beginning these experiments, three important steps were carried out: (1) all reservoirs were supplied with fresh media, (2) all outlet tubing was cut to the same length, and (3) all chips were subjected to one-way rather than recirculating back to the media reservoir. After each chip within the MCDs was subjected to one-way flow (2 μL/min) for 4 h, a baseline sample of the perfusate was collected from the luminal outlet tubing for 3 h into a 1.6 mL Eppendorf tube. Next, cisplatin (50 μM) or aristolochic acid (25 μM) was delivered basolaterally on chip by manually pipetting each drug solution to the appropriate basal media reservoir. […]
# LDH assays were performed according to the manufacturer's instructions (Promega, CytoTox Non-Radioactive Cytotoxicity Assay, G1780). […] 50 μL of stop solution was then added, all bubbles were removed using a syringe, and their absorbance was recorded at 490 nm using a plate reader.
# as §1
# as §2, with “±inhibitor. […]” for “±inhibitor.”
# OPTEC tubules [2] = assay: Diffusional permeability measurement of FITC-inulin through tubules on chip; assay type: cell-based, human; conditions: 4.5 kDa FITC-inulin 100 μg/mL perfused through lumen, OPTEC tubules vs PTEC-TERT1 tubules (control)
# Description: The barrier function of the 3D OPTECs- and PTEC-TERT1 s based models was assessed by measuring the diffusional permeability of 4.5 kDa inulin. This compound was selected because is neither up taken up nor secreted by PTECs in-vivo. FITC-labeled inulin (Sigma product F3272) was dissolved in prewarmed LPTEC media at a concentration of 100 μg/mL and perfused through the luminal channel at a rate of 20 μL/min for 3 min and 1.5 μL/min thereafter for 15 min. The diffusion of FITC-inulin was calculated by: […]
# Where Pd is the diffusional permeability coefficient, I1 is the average intensity at the initial time point, I2 is the average intensity at time t, Ib is the background intensity taken before perfusion of FITC-inulin, and dis the diameter of the channel^13.
# UB cells = assay: FITC-inulin retention in perfused epithelialized UB channels on chip (barrier function); assay type: cell-based, human; conditions: perfused epithelialized UB channels vs empty channels, after 1 hour
# Description: To fabricate this chip, first the various chip components were assembled (FIG. 17A) and ECM was added to an inner reservoir around a pin and crosslinked. The pin was then removed forming an open channel that can be seeded with cells (FIG. 17B). This design allowed for easy access to the ECM and medium bathing the ECM. After seeding, cells formed confluent monolayers along channel walls within 3-7 days (FIG. 16C,D,E). Perfused epithelialized channels retained FITC-inulin after 1 hour relative to empty channels, indicating barrier function (FIG. 16F,G).
compound,measurement,setting,value
NC(=O)c1ccc(-c2nc(-c3ccc4c(c3)OCO4)c(-c3ccccn3)[nH]2)cc1 [SB431542],cell morphology during prolonged cell culture,"OPTECs; 10 μM, OPTECs 2D culture",cuboidal cell morphology
same,EMT marker expression in 2D OPTEC monolayers,"OPTECs; SB431542 as media supplement, 2D culture",down regulation of EMT markers
COc1cccc2c1cc([N+](=O)[O-])c1c(C(=O)O)cc3c(c12)OCO3 [aristolochic acid],LDH release compared to PTEC-TERT1 tubules,"OPTEC tubules [1]; 25 μM aristolochic acid delivered basolaterally, OPTEC tubules on chip",significantly higher
CN/C(=N/CCSCc1nc[nH]c1C)NC#N [cimetidine],decrease of normalized LDH release upon OCT2 inhibitor (factor),"OPTEC tubules [1]; cimetidine 1 mM pre-treatment, 50 μM cisplatin, OPTEC tubules",> 2
same,effect of OCT2 inhibition on normalized LDH release,"PTEC-TERT1 tubules; cimetidine 1 mM, same cisplatin dose (50 μM)",far less effect
N.N.[Cl][Pt][Cl] [cisplatin],normalized LDH response compared to PTEC-TERT1 s,"OPTEC tubules [1]; 50 μM cisplatin delivered basolaterally, OPTEC tubules on chip",significantly higher
CCCN(CCC)S(=O)(=O)c1ccc(C(=O)O)cc1 [probenecid],normalized LDH release upon OAT1/3 inhibitor,"OPTEC tubules [1]; probenecid 2 mM pre-treatment, 25 μM aristolochic acid, OPTEC tubules",substantially reduced
same,effect of OAT1/3 inhibition on normalized LDH release,"PTEC-TERT1 tubules; probenecid 2 mM, same aristolochic acid dose (25 μM)",negligible effect
FITC-inulin,diffusional permeability,OPTEC tubules [2],comparable to that observed for PTEC-TERT1 tubules
same,retention of FITC-inulin in channel (barrier function),UB cells,retained
